Experimental data from a compilation of properties of binary mixtures (doi:10.1016/j.molliq.2022.119417).

Assay: xn = mol fraction of the nth substance listed
Settings: 100 kPa

CC[n+]1ccn(C)c1.O=S(=O)([O-])O + OCCO
viscosity [mPa·s]
Settings	x1 = 0.125	x1 = 0.143	x1 = 0.167	x1 = 0.2	x1 = 0.25	x1 = 0.33	x1 = 0.5
298.15 K	19	21	24	28	35	52	95
303.15 K	–	17	20	23	29	43	–
308.15 K	13	15	17	19	–	35	62
313.15 K	11	–	14	16	20	–	50
318.15 K	9	11	–	14	18	25	42
323.15 K	8	9	10	12	15	–	35
